The text below walks through data of patent US5215738A, “Benzamide and nicotinamide radiosensitizers” (SRI International, priority 1990, dated 1993).

The nature of one data set: Water solubility. It is filed as physicochemical.
The nature of data set [1]: Cytotoxicity test (% cell survival, hypoxic cells). It is filed as cell-based, Chinese hamster. The following applies: hamster, cho ha-1 cells, 10 mM, 22° C., hypoxia. The method, then:
(§1) Cytotoxicity tests were also carried out on some of the compounds. The test procedure was as follows: Log-phase Chinese hamster ovary HA-1 cells were trypsinized (0.5% trypsin in Hank's buffered salt solution (HBSS)) and plated in 60 mm Permanox petri dishes in concentrations necessary to yield approximately 30 colonies after experimental treatment. The cells were allowed to attach overnight. Then the medium was removed from each dish and replaced with 2 ml of medium containing varying concentrations of the test compound. The petri dishes were then placed in nylon chamber fitted with gassing ports and, to achieve hypoxia, were gassed at room temperature with humidified N2 containing 5% CO2 ' for 1 hr at a rate of 1 l/min. The cells are then exposed to 10 mM of the test compound for 1 hr at 22° C. The % cell survival is read after such treatment.

Data set [2] concerns Chinese hamster ovary HA-1 cells. Put plainly: Cytotoxicity test (% cell survival, hypoxic cells). The format is cell-based. The note with it: 10 mM, 1 hr, 22° C., hypoxia, CHO HA-1 cells; 60 min, 10000 µM. The method, then:
as §1

The next data set relates to EMT6 tumors. Kind of data set: In vivo assay for radiosensitization activity (EMT6 tumors in BALB/c mice). Further details: species or system female BALB/c mice; key: 0: No radiosensitization; 1: Minimal radiosensitization (some radiosensitization relative to controls but lowest survival>3×lowest survival with MIS); 2: Moderate radiosensitization (not good as MIS, but lowest surviving fraction<3×lowest surviving fraction with MIS); 3: Good radiosensitization (equal to MIS); 4: Excellent radiosensitization (superior to MIS). The following applies: score 0 to 4 compared with MIS, 5 mmol/kg or 2/3 of the LD50, 2,000 rad. How it is done: In Vivo Assay for Radiosensitization Activity
The compounds of the invention are tested in vivo for radiosensitization activity by the assay of Brown, J. M. Radiation Res (1975) 64:633-47, incorporated herein by reference. For this assay EMT6 tumors in female BALB/c mice weighing 20-25 g are used. These mice are bred under specific pathogen-free conditions and are 3-4 months old at the beginning of each experiment. The EMT6 tumor is grown intradermally in the flank from an inoculation of 2×10^5 tumor cells taken from the 2nd-8th in vitro passage of the tumor cells since removal from the previous in vivo tumor. Two tumors per mouse are implanted, and are used as subject tumors when they reach a volume of approximately […]. At this point the tumors contain approximately 20% hypoxic cells.
Test compounds are compared against MIS in this assay. The test compound is tested at a fixed injected dose of either 5 mmol/kg or 2/3 of the LD50 (whichever is lower), MIS is injected into controls at the same dose. Additional suitable controls of test compound-injected but nonirradiated and saline-injected and irradiated mice are also included. A fixed radiation dose of 2,000 rad is applied at variable intervals of 5 min to 2 hr between injection and irradiation. Typically, irradiation is applied at 5, 10, 15, 20, 30, 45, 60, 90, and 120 min following intraperitoneal administration of both drugs. By using these intervals, the results give an indication of both the optimum time to irradiate and of how the test compound sensitizes in relationship to MIS.
Irradiation of the EMT6 tumors is done by irradiating nonanesthetized tumor-bearing mice in a Plexiglas box. Irradiation conditions are 250 kVp X-rays, 15 mA, FSC 33 cm, added filtration of 0.35 mm Cu, half value layer 1.3 mm Cu, and a dose rate of 317 rad/min.
Radiosensitization activity is judged by survival rate of dissected and cultured tumor cells as follows: The tumor-bearing mice are killed immediately after irradiation, and tumors dissected from the skin, cut into several pieces, and made into a fine brei by high-speed chopping with a razor blade attached to a jigsaw. The brei is added to 30 ml of Hank's buffered salt solution (HBSS) containing 0.02% DNase, 0.05% promase, and 0.02% collagenase. The suspension is stirred for 30 min at 37° C., filtered, and centrifuged at 1,600 rmp for 10 min at 4° C. The cell pellet is resuspended in complete Waymouth's medium plus 12-1/2% horse serum plus 2-12% fetal calf serum (FCS) and an aliquot mixed with trypan blue and counted with the use of a hemacytometer. […] After incubation for 13 days, the colonies are fixed and stained, and those containing 50 cells or more are counted. […]
The test compound is scored on the scale of 0 to 4 based on how it compares with MIS. […]

Data set [3] concerns normal cells (tail growth) and tumor cells. The following applies: nicotinamide administered prior to irradiating; cited from earlier work.
A further data set relates to Chinese hamster cells. The following applies: added during or after irradiation; non-hypoxic cells; cited from earlier work.

Counter-ions that a name gives are not always drawn.

On to `NC(=O)c1cncc(O)c1` [5-hydroxynicotinamide sodium salt, 5-hydroxynicotinamide], for which the water solubility entry in “Water solubility” is given as “very water soluble”.

Turning to `NC(=O)c1cccc(O)c1` [3-hydroxybenzamide], the viability at 1 h, 10000 µM in data set [1] is 90%. Moreover, in data set [2], the “Cytotoxicity % Cell Survival” value worked out at 77%. Further, the Radiosensitization in the data set with EMT6 tumors amounted to 3.

`NC(=O)c1cccnc1` [nicotinamide]: the “enhancement ratio, normal vs tumor cells” value in data set [3] is given as “greater for normal cells in vivo than that exhibited for tumor cells”. In addition, the Radiosensitization in the data set on EMT6 tumors came to 3.

`NC(=O)c1cccc(OCCO)c1` [3-(2-hydroxyethoxy)benzamide] had a viability at 1 h, 10000 µM in data set [1] of 89%. In addition, the Radiosensitization with EMT6 tumors stood at 3.

For the compound `COCCNc1cncc(C(N)=O)c1` [3-(2-methoxyethylamino)nicotinamide, 3-(2-methoxyethylamino) nicotinamide], in the data set on EMT6 tumors, the Radiosensitization is 3.

`NC(=O)c1cccc(N)c1` [m-aminobenzamide]: the “sensitization to lethal effects of radiation” value in the data set on Chinese hamster cells is on record as “found to sensitize these cells to the lethal effects of radiation”.
